# From patent US8455468B2, “Methods for the treatment of a traumatic central nervous system injury” (priority 2005, dated 2013)
# How the values were obtained:
# [1] = Stability of progesterone solutions (HPLC-UV); assay type: physicochemical
# Excerpt: For all stability testing, the method of […], et al. was used with minor modifications ([…], et al. (1999) Journal of Pharmaceutical & Biomedical Analysis, 19(5):803-8). The method was originally validated to assess the stability of medroxyprogesterone acetate and estradiol valerate tablets. It is an isocratic HPLC-UV method utilizing external standardization. A 5 micron, 4.6×250 mm BDS-Hypersil C-18 column (Keystone Scientific) was used and the analyses were completed on an Agilent 1100 model HPLC system with photodiode array detector. The mobile phase consisted of 40% 0.07M ammonium acetate buffer, pH 7.2 and 60% acetonitrile. Detection was at […]. […] Reproducibility as assessed by 10 injections of the same preparation on multiple different days was always less that 10%. […] A five point standard curve was run with each analysis.
# acute TBI [2] = test system: acute TBI
# Method: This phase II, randomized, double blind, placebo-controlled clinical trial was conducted at an urban, level I trauma center. 100 adults presenting within 11 hours of a blunt TBI with a Glasgow Coma Scale score of 4-12 were enrolled with proxy consent. […] Blinded observers closely monitored patients for the occurrence of adverse events, and initial functional outcomes were assessed 30 days post-injury. The primary safety outcome was difference in adverse event rates, including mortality. The primary measure of activity was dichotomized Glasgow outcome scale extended (GOSE) 30 days post injury.
# We also hoped to detect signals of activity.
# According to the U.S. Food and Drug Administration, an “adverse event” is any undesirable medical event occurring to a subject in a clinical trial, whether or not related to the study drug. This includes events not seen at baseline, or worsened if present at baseline. “Serious adverse events” are defined as death, immediate risk of death, or suspicion that use or continued use would result in the patient's death, prolongation of existing hospitalization, persistent or significant disability/incapacity, or a congenital anomaly/birth defect.
# These included any thromboembolic event (deep vein thrombosis, thrombophlebitis, ischemic myocardial infarction, pulmonary embolism, stroke or transient ischemic attack), elevated liver enzymes, temperature elevation, allergic reactions, and hyperglycemia. […] An independent internal safety monitor made the determination if an adverse event was associated with study treatment. Both the FDA and an independent NIH-appointed data safety monitoring board independently reviewed these determinations.
# Interventions: Following proxy consent, patients were placed in one of 8 clinical subgroups defined by gender (male versus female), race (black versus all others) and TBI severity (moderate versus severe). […] This asymmetric approach was adopted at the request of our NIH-appointed DSMB to maximize the number of patients receiving study drug while maintaining blinding.
# Whenever a patient was enrolled, the next kit in sequence for that subgroup was used to prepare infusions. […] The remaining vials were used to prepare 5 subsequent 12-hour infusions at the same standard rate of 10 mls/hour for a total of 3 days of treatment. Details of drug monitoring are reported elsewhere (Wright et al. (2005) J Clin Pharmacol 45(6):640-648).
# Methods of Measurement: To assess drug safety, study personnel rounded daily to document the occurrence of adverse events (AEs) or serious adverse events (SAES). Hourly vital signs (blood pressure, heart rate, respiratory rate, temperature, and pulse oximetry), intracranial pressure readings, and other parameters (mean arterial pressure, cerebral perfusion pressure, and fluid balance), were abstracted from each patient's chart. Laboratory values were obtained from the hospital's information system, and concomitant medications and interventions were noted.
# Whenever an SAE occurred, an independent board-certified neurosurgeon assessed its potential relationship to study treatment using pre-defined scale. SAEs were reported within 24 hours to the Institutional Review Board (IRB), our NIH-appointed Data Safety Monitoring Board (DSMB), and the U.S. Food and Drug Administration. All other adverse events were reported to on a weekly basis.
# Primary Data Analysis—Treatment and placebo groups were compared with respect to a variety of demographic, historical and prehospital characteristics to ensure that important independent predictors of outcome were equally distributed. Next, the groups were compared with respect to rates of adverse and serious adverse events, using Fisher's exact test.
# acute TBI [3] = experiment: Phase II ProTECT trial: physiological parameters during infusion; assay type: in vivo, human
# Excerpt: Primary Data Analysis—Treatment and placebo groups were compared with respect to a variety of demographic, historical and prehospital characteristics to ensure that important independent predictors of outcome were equally distributed. Next, the groups were compared with respect to rates of adverse and serious adverse events, using Fisher's exact test. Generalized linear model analysis using a negative binomial distribution was used to compare rates of events that occurred multiple times per patient within the first 30 days (McCullagh and Nelder (1989) Generalized Linear Models (2nd ed, Chapman & Hill)). Then, group specific differences in 30-day outcomes. Fisher's exact test was used to analyze GOSE scores dichotomized into “good or moderate recovery” versus all other levels. Wilcoxon's rank sum test was used to compare group specific DRS scores. Mean and median durations of coma and post-traumatic amnesia were compared using student's t-test. All analyses were stratified on an a priori basis by brain injury severity (iGCS 4-8 (severe) versus iGCS 9-12 (moderate)). Longitudinal mixed effects models were used to analyze ICP-TIL as well as other hourly or daily clinical measurements from enrollment through treatment day 4.
# clinical = settings: human, in vivo
# Method: Multiple blood samples were obtained from 11 female and 21 male trauma patients receiving PG and 1 female and 3 male patients receiving placebo infusions for 72 h. Values for CSS, CL, t1/2 and Vd were obtained using AUC(0-72) and post-infusion blood samples.
# This study was approved by the Institutional Review Board of Emory University, the Drug Safety Monitoring Board (NINDS) and the FDA (IND #58,986). After obtaining informed consent, thirty-six patients meeting the inclusion criteria outlined as follows were studied. […] Inclusion criteria required that each patient be ≧18 years old, have a closed head injury arising from blunt trauma, have a moderate to severe brain injury (Index Glasgow Coma Score (GCS) 4-12) and arrive in the Emergency Department and obtain informed consent (from next-of-kin) in less than 11 hours post injury.
# Aliquots of each solution were assayed for final concentration and sterility. […] Each kit contained six vials. […] The placebo kits were also formulated with 95% ethanol. Because of the alcohol concentration, doses of study drug were mixed with Intralipid® immediately prior to infusion. Each infusion dose was administered over 12 hours and repeated every 12 hours for a total of 72 hours. […] The dosing worksheet was also used to calculate the volume of study medication to be diluted in Intralipid® for each of the remaining infusion reservoirs at a standard rate of 10 cc/hr.
# Nine (5 ml) samples were obtained at the following times during the infusion: pre-infusion (0), 4, 6, 12, 24, 36, 48, 60, and 72 hours. An additional five samples were obtained following cessation of infusion at: 0.5, 1, 2, 4 and 8 hours. Samples were allowed to clot, and then centrifuged. After that, the serum was removed and stored at −70° C. until analyzed.
# The primary pharmacokinetic parameter, CL, was estimated as the ratio of the dose to area under the serum concentration-time curve (AUC). AUC's were calculated using the linear trapezoidal rule (Veng-Pedersen (1989) Clin Pharmacokinet, 17(6):424-40). The elimination phase rate constant, ke, was calculated from the serum concentration-time data following the termination of the infusion using iterative non-linear regression (WinNonlin®, Pharsight Corporation, Mountain View, Calif.). Volume of Distribution was estimated as the ratio of CL and ke. Css was estimated as the ratio of Dose and CL. Actual Css was defined as the concentration achieved when the slope of the serum concentration-time curve for three or more consecutive samples was not different from zero.
# Predicted Css concentrations were calculated as the ratio of the infusion rate/clearance. Differences between predicted and measured Css were made using a ‘t’ test for repeated measures. A Bland-Altman analysis was conducted to assess the magnitude of any bias associated with this approach (Bland and Altman (1986) Lancet, 1(8476):307-10). Pharmacokinetic parameter comparisons between male and female were accomplished using a ‘t’ test for independent means. A p value of less than 0.05 was considered the minimum level for rejection of the null hypothesis.
# [4] = Solubility of progesterone in carrier; assay type: physicochemical
# acute TBI [5] = experiment: Phase II ProTECT trial: outcome variables 30 days post injury; assay type: in vivo, human
# Excerpt: In addition to monitoring subjects for signs of harm, we hoped to detect signals of activity. […] For this preliminary study, our primary outcome of interest was Glasgow Outcome Scale Extended (GOSE) 30 days post-injury. […] Thirty days following each injury event, we assessed each patient's Glasgow Outcome Score Extended (GOSE) and Disability Rating Scale (DRS). Patients who were severely impaired were classified as “not testable”-a surrogate marker for a poor outcome. Reliability codes were used to record reasons for non-administration of a particular measure, such as physical impairment (e.g., hemiparesis) cognitive impairment (e.g., could not understand instructions), or intoxication. One-year outcomes will be reported at a later date. […] Our secondary aim was to look for signs of drug activity by assessing several measures of outcome. Our a priori primary measure of outcome was the Glasgow Outcome Scale-Extended ([…] et al. (1998) Journal of Neurotrauma 15(8):587-597). […] (1987) Journal of Neurosurgery 67(6):832-840) and 5) the Disability Rating Scale (DRS) (Hall et al. […] Variables determined to be independently associated with all-cause mortality or CNS related-death, such as iGCS (dichotomized into moderate versus severe), injury severity score and Marshall CT score were incorporated in a stepwise logistic regression analyses. […]
# moderate to severe TBI = experiment: Pilot phase II randomized double-blind trial of progesterone for traumatic brain injury, preliminary evaluation (Example 2); assay type: in vivo, human
# Method: The administration protocol was carried out was described above in Example 1.
# To determine if a therapeutic response was achieved, the following endpoints were monitored: • ICP reduction determined by calculating “therapeutic intensity level” (ICP-TIL); • duration of coma (injury to awaking); • mortality one-month post injury; • neurological outcome 1 month and 1 year post-injury, as determined by Glasgow outcome scale (GOS), Disability rating scale (DRS) and Galveston orientation and amnesia test (GOAT).
# The administration protocol and pharmaceutical composition administered are described in detail in Example 1. Follow up regarding condition occurred at 30 days and 1 year.
compound,measurement,setting,value
"CC(=O)[C@H]1CC[C@H]2[C@@H]3CCC4=CC(=O)CC[C@]4(C)[C@H]3CC[C@]12C [progesterone, pregn-4-ene-3,20-dione]",stability of Intralipid solutions containing progesterone in 95% ethyl alcohol,[1],≥ 24 h
same,stability of solution of progesterone in 95% ethyl alcohol,[1]; room temperature,up to 2 years
same,Death within 30 days,acute TBI [2]; 30-day adverse event rate,13.0%
same,Acute respiratory distress syndrome,"acute TBI [2]; both, human, in vivo, 30 days",2.6%
same,Cardiac Arrhythmia,"acute TBI [2]; both, human, in vivo, 30 days",5.2%
same,Central nervous system infection,"acute TBI [2]; both, human, in vivo, 30 days",1.3%
same,Cholestatic Jaundice,"acute TBI [2]; both, human, in vivo, 30 days",6.5%
same,Fever,"acute TBI [2]; both, human, in vivo, 30 days",70.1%
same,Gastrointestinal Bleed,"acute TBI [2]; both, human, in vivo, 30 days",5.2%
same,Hyperglycemia-non DM,"acute TBI [2]; both, human, in vivo, 30 days",27.3%
same,Hypertension,"acute TBI [2]; both, human, in vivo, 30 days",11.7%
same,Hypotension,"acute TBI [2]; both, human, in vivo, 30 days",9.1%
same,Hypothermia,"acute TBI [2]; both, human, in vivo, 30 days",5.2%
same,Hypoxemia,"acute TBI [2]; both, human, in vivo, 30 days",11.7%
same,Increase Liver Enzyme,"acute TBI [2]; both, human, in vivo, 30 days",6.5%
same,Phlebitis at Injection Site,"acute TBI [2]; both, human, in vivo, 30 days",1.3%
same,Rash or Hives,"acute TBI [2]; both, human, in vivo, 30 days",2.6%
same,Seizures,"acute TBI [2]; both, human, in vivo, 30 days",5.2%
same,Sepsis,"acute TBI [2]; both, human, in vivo, 30 days",2.6%
same,Shock,"acute TBI [2]; both, human, in vivo, 30 days",2.6%
same,Suspected Pneumonia,"acute TBI [2]; both, human, in vivo, 30 days",11.7%
same,Syndrome of inappropriate ADH,"acute TBI [2]; both, human, in vivo, 30 days",1.3%
same,Tachycardia,"acute TBI [2]; both, human, in vivo, 30 days",24.7%
same,Thromboembolic Disease,"acute TBI [2]; both, human, in vivo, 30 days",3.9%
same,adverse events specifically ascribed to administration,acute TBI [2]; in vivo,two cases of superficial phlebitis at the IV site
same,deep vein thrombosis,acute TBI [2]; in vivo,Three patients
same,"rise in mean temperature over the infusion interval, treatment by time interaction slope",acute TBI [2]; in vivo,−0.0055
same,serious adverse events attributed to study drug,acute TBI [2]; in vivo,No serious adverse events were attributed to progesterone
same,mean intracranial pressure levels (ICPs) trend,"acute TBI [3]; first 4 days post-injury, subjects with monitors, not statistically significant",remained stable
same,Mean Duration of Pressures Exceeding Threshold Values: CPP < 60,acute TBI [3]; in vivo,6.9 h
same,Mean Duration of Pressures Exceeding Threshold Values: ICP > 25,acute TBI [3]; in vivo,5.0 h
same,Mean Duration of Pressures Exceeding Threshold Values: MAP < 70,acute TBI [3]; in vivo,2.5 h
same,Mean Duration of Pressures Exceeding Threshold Values: Systolic BP < 90,acute TBI [3]; in vivo,2.7 h
same,"Mean Frequency of Pressures Exceeding Threshold Values: CPP < 60, Rate/1000 consecutive readings",acute TBI [3]; in vivo,92.9
same,"Mean Frequency of Pressures Exceeding Threshold Values: ICP > 25, Rate/1000 consecutive readings",acute TBI [3]; in vivo,70.2
same,"Mean Frequency of Pressures Exceeding Threshold Values: MAP < 70, Rate/1000 consecutive readings",acute TBI [3]; in vivo,29.5
same,"Mean Frequency of Pressures Exceeding Threshold Values: Systolic BP < 90, Rate/1000 consecutive readings",acute TBI [3]; in vivo,32.1
same,Percent of Patients with Clinical Values Exceeding the Threshold: CPP < 60,acute TBI [3]; in vivo,48.7%
same,Percent of Patients with Clinical Values Exceeding the Threshold: ICP > 25,acute TBI [3]; in vivo,32.4%
same,Percent of Patients with Clinical Values Exceeding the Threshold: MAP < 70,acute TBI [3]; in vivo,29.0%
same,Percent of Patients with Clinical Values Exceeding the Threshold: Systolic BP < 90,acute TBI [3]; in vivo,29.0%
same,"Cerebral Perfusion Pressure, mean",acute TBI [3]; infusion day 0,70.3 mmHg
same,"Cerebral Perfusion Pressure, mean",acute TBI [3]; infusion day 1,73.4 mmHg
same,"Fluid Balance, mean",acute TBI [3]; infusion day 1,767.9 + mls
same,"Cerebral Perfusion Pressure, mean",acute TBI [3]; infusion day 2,75.9 mmHg
same,"Fluid Balance, mean",acute TBI [3]; infusion day 2,1189.5 + mls
same,"Cerebral Perfusion Pressure, mean",acute TBI [3]; infusion day 3,74.9 mmHg
same,"Fluid Balance, mean",acute TBI [3]; infusion day 3,802.0 + mls
same,"Cerebral Perfusion Pressure, mean",acute TBI [3]; infusion day 4,73.8 mmHg
same,"Fluid Balance, mean",acute TBI [3]; infusion day 4,818.7 + mls
same,maintenance infusion rate to achieve target concentration of 450±100 ng/mL,clinical; both,approximately 0.8 mg/kg/h
same,clearance,"clinical; both, CL",28.8 mL/min/kg
same,half-life,"clinical; both, terminal half-life",1.78 ± 1 h
same,Vd,clinical; female,1.33 L/kg
same,concentration at 0 h,clinical; female,2.86 ± 1.37 ng/mL
same,clearance,"clinical; female, CL",31.3 mL/min/kg
same,Vd,clinical; male,1.62 L/kg
same,concentration at 0 h,clinical; male,2.53 ± 1.73 ng/mL
same,clearance,"clinical; male, CL",27.7 mL/min/kg
same,clearance,"clinical; male, iv",22.2 mL/min/kg
same,solubility,[4],soluble only in alcohol
same,"Disability Rating Score: Total DRS, mean",acute TBI [5]; Index GCS = 9-12,5
same,DRS scores vs placebo,acute TBI [5]; moderately brain-injured patients,significantly better DRS scores
same,reduction in brain deaths,moderate to severe TBI; vs control,60%
same,proportion of subjects experiencing brain death,"moderate to severe TBI; vs group B, p=0.0295 Fisher's exact test",significantly lower proportion
